Columns and labels:
KL allograft tumor = assay: KL subcutaneous allograft tumor growth in syngeneic wild-type mice; format: in vivo; conditions: KL allograft implanted subcutaneously in right flank, single agent, I.P. 5 days/week
Source text: FIG. 6. NAMPT inhibition reduced KL lung tumor growth in vivo. A) Lung tumor volume measurements of KL subcutaneous allograft tumors following treatment with indicated drugs. B) Average tumor volumes over time in KL tumors with indicated treatments. Arrow denotes treatment start time. C) Percent change in KL tumor volume after 6 days of treatment with indicated drugs. D) Images of subcutaneous KL tumor allografts at endpoint of treatment experiment. *P<0.05.
All animal experiments were reviewed and approved by the Institutional Animal Care and Use Committee (IACUC) at NYU Langone Health. For lung tumor growth assays, 10^6 KP and KL syngeneic mouse lung cancer cells were implanted into male C57BL/6 mice at 7 weeks of age via tail vein injection. After 8 weeks, mice were imaged by Mill to assess tumor volume. For drug treatment experiments, 10^6 KLA cells were injected subcutaneously in the right flank of female C57BL/6 mice at 7 weeks of age or injected via tail vein injection. […] Tumor volumes were measured using digital calipers or Mill. Mouse weights were measured weekly to adjust total dosage and assess the effects of drug combinations on mouse health. […]

PD-L1 = assay: Western blot of PD-L1 in KP cells with SIK or LKB1 knockout treated with NAM; format: cell-based, mouse
Method: A) Western blot of indicated proteins in KL or KP cells with SIK or LKB1 knockout and treated with NAM or NAD^+ for 6 days.
Lung cancer cell lines were cultured in RPMI 1640 (Gibco, Thermo Fisher Scientific) supplemented with 10% fetal bovine serum (FBS, Gibco). The KPC Kras^LA1-G12D p53^−/− (KP) and KLA Kras^LA1-G12D;Lkb1^−/− (KL) murine lung cancer cell lines were generated by dissociation of KP and KL lung tumor nodules to single cell suspensions, seeded on tissue culture plates, and cultured in RPMI 1640 (Gibco, Thermo Fisher Scientific) supplemented with 10% fetal bovine serum (FBS, Gibco). […] All cells were cultured at 37° C. in a humidified incubator at 5% CO2 and verified on a weekly basis to be mycoplasma negative.

Row | Compound | tumor growth (KL allograft tumor) | PD-L1 levels (PD-L1; KP cells with SIK or LKB1 KO, NAM treatment for 6 days) | PD-L1 levels (PD-L1; KP cells with wild-type SIK or LKB1, NAM treatment)
1 | O=C(/C=C/c1cccnc1)NCCCCC1CCN(C(=O)c2ccccc2)CC1 [FK866] | reduced lung tumor growth only after 6 days of treatment |  | 
2 | NC(=O)c1cccnc1 [NAM, nicotinamide] |  | marked reduction in PD-L1 levels | no effect on PD-L1 levels
